Patent publication US20220323471A1 (priority 2019, published 2022)
Where two headings read alike, the source gives them in different places.

Tests used:
[1] = test system: ZIKV; settings: cited from earlier work
[2] = test system: HT1080, CHME3, VERO cells; assay: MTT cell viability assay; format: cell-based, human and monkey; settings: human or monkey cells (HT1080, CHME3, VERO); 48 hours
Procedure: Cell viability was determined by measuring the reduction of the tetrazolium dye MTT [3-(4,5-dimethylthiazol-2-yl)-2,5-diphenyltetrazolium bromide] to its insoluble form formazan. We treated 4×10^3 cells/well in a 96-well plate with serial dilutions of the indicated drugs. Human and monkey cells were incubated with DGP, diphyllin, or 6-deoxy-D-glucose for 48 hours at 37° C. After the incubation period, 10 μl MTT solution (5 mg/mL) was added to each well for an additional 4 hours at 37° C. Finally, the media was removed and dimethyl sulfoxide was added (200 μl/well) according to the manufacturer's instructions. The optical density was measured at 570 nm using a microplate reader. Experiments were performed in triplicates and standard deviations are shown. Mock-treated cells represent 100% viability.

[3] = test system: endosomes and lysosomes of HT1080 cells; assay: Acridine Orange fluorescence, endosomal/lysosomal acidification; format: cell-based, human; settings: 4 hours pre-incubation, DGP, diphyllin, 6DG 2, 1 or 0.1 μM, Bafilomycin 100 nM, NH4Cl 25 mM
Procedure: To determine whether DGP inhibited ZIKV infection by preventing the acidification of endosomes and lysosomes, Acridine Orange (AO) was used, a cell-permeable fluorescent dye marker that accumulates in low pH compartments such as endosomes and lysosomes.
HT1080 cells were pre-incubated for 4 hours with the Bafilomycin (FIG. 10A, 100 nM), NH4Cl (FIG. 10A, 25 mM), DGP (FIG. 10B: 2 μM, 1 μM, or 0.1 μM) diphyllin (FIG. 10C: 2 μM, 1 μM, or 0.1 μM), or 6DG (FIG. 10C: 2 μM, 1 μM, or 0.1 μM) to test whether DGP prevents endosomal/lysosomal acidification. After staining the cells with 1 μg/mL of AO, changes in fluorescence were measured using a Celesta flow cytometer on the PerCP-Cy5-5-A channel. A shift in the AO fluorescence is indicated with an arrow in FIGS. 10A-10D.
Acridine Orange (Invitrogen) staining was performed as described previously (Kanzawa, T. et al. 2004, “Role of autophagy in temozolomide-induced cytotoxicity for malignant glioma cells.” Cell Death Differ 11(4): 448-457). Cells were stained with 1 μg/mL AO in 10% FBS DMEM for 30 min at 37° C. and then collected by trypsinization. Changes in fluorescence were measured using a Celesta flow cytometer in the PerCP-Cy5-5-A channel.

[4] = test system: ZIKV strain MR766; assay: ZIKV strain MR766 infection, 4G2 antibody flow cytometry; settings: for IC50: Zika virus
[5] = test system: WNV-RVP; format: cell-based, West Nile virus; settings: VERO cells; DGP 1 μM; NH4Cl 20 mM
[6] = test system: DENV1-RVP; format: cell-based, dengue virus; settings: VERO cells; DGP 1 μM; NH4Cl 20 mM
[7] = test system: EBV RVP; format: cell-based, Ebola virus
[8] = test system: Sendai Virus (SeV); assay: Sendai Virus infection and IFN-β production in CHME3 cells; format: cell-based; settings: SeV MOI 1 and 10, DGP 1 μM, NH4Cl 20 mM
Procedure: The Flaviviridae family of viruses encode a glycoprotein that is necessary to achieve fusion at the endosomal/lysosomal membranes, the step that releases viral components into the cytoplasm. […] Instead, SeV fuses at the plasma membrane. To this end, IFN-β production and viral infection were measured in CHME3 cells infected with SeV at an MOI 1 and 10 in the presence of DGP (1 μM) or 20 mM NH4Cl.
To detect viral copies of ZIKV and Sendai Virus (SeV) by qRT-PCR, cells were seeded in 24-well plates, with or without DGP treatment, and infected with the virus at the indicated MOI for 48 h. After the incubation period, total RNA from HT1080, VERO, and CHME3 cells was isolated and purified using Trizol (Invitrogen). For detection of ZIKV viral load in brain and spleen, 3 mice were sacrificed at 6 days post-infection and total RNA was extracted from the brain and spleen. For cDNA synthesis, 1 ng of total RNA was reverse transcribed. The reaction mixture included 1 mM of deoxyribonucleotide phosphates (dNTPs), 2 nM of the specific reverse primer of ZIKV or SeV, 1× M-MULV buffer, 10 U M-MuLV RT (BioLabs), and 2 U of RNase Inhibitor. The reaction mixture was incubated for 1 hour at 42° C. followed by 20 min at 65° C. to inactivate the enzyme. For actin detection, Oligo-dT was used to reverse transcribe total RNA.
ZIKV RNA levels were measured using real-time PCR. HT1080 and VERO cells were challenged by ZIKV MR766 at an MOI of 1 in the presence of DGP. At 48 hours post-challenge, cells were lysed and total RNA was extracted using trizol. Total RNA was used to determine the levels of ZIKV RNA by real-time PCR using specific primers against ZIKA. qRT-PCR was carried out using SYBR green in a 20-μl final volume using a MASTERCYCLER proS machine. The primers used to detect ZIKV were: SEQ ID NO. 1: 5′-TT […]-3′-Forward (Genome Position 941-964) and SEQ ID NO. 2: 5′-[…]-3′-Reverse (Genome position 1123-1103) (AY632535.2). For the detection of SeV, the following primers were used: SEQ ID NO. 3: 5′-[…]-3′-Forward (Genome position 210-233) and SEQ ID NO. 4: 5′-[…]-3′-Reverse (Genome position 332-307) (M30202. Genome position 210-332) (Wagner, A. M. et al. 2003, “Detection of sendai virus and pneumonia virus of mice by use of fluorogenic nuclease reverse transcriptase polymerase chain reaction analysis.” Comp Med 53(2): 173-177). For the detection of IFN-β the following primers were used: SEQ ID NO. 5: Forward 5-[…]-3′ (Genome position 644-668) and SEQ ID Na 6: Reverse 5′-[…]-3′ (Genome position 718-697) (NM_002176.2) and for actin detection: SEQ ID NO. 7: 5′-[…]-′3-Forward and SEQ ID NO. 8: 5′-[…]′3-Reverse. ZIKA viral RNA levels were normalized to actin (upper panels). […]

[9] = test system: TBEV-RVP; format: cell-based, tick-borne encephalitis virus
[10] = test system: JEV-RVP; format: cell-based, Japanese encephalitis virus; settings: VERO cells; DGP 1 μM; NH4Cl 20 mM

CCN(CCO)CCCC(C)Nc1ccnc2cc(Cl)ccc12 (stereo not shown) [hydroxychloroquine]
required inhibitory concentrations for ZIKV in cell culture [1]: micromolar range

COc1cc2c(O)c3c(c(-c4ccc5c(c4)OCO5)c2cc1OC)C(=O)OC3 [diphyllin, Diphyllin]
toxicity at concentrations required to inhibit ZIKV infection (MTT) [2]: not toxic
acidification of endosomes and lysosomes (AO fluorescence) [3]: prevented the acidification of endosomes and lysosomes but to a lesser extent
IC50 ([4]; HT-1080, read-out: IC50, ZIKV infection): 0.06 µM
IC50 ([4]; read-out: IC50, ZIKV infection): 0.21 µM

CCN(CC)CCCC(C)Nc1ccnc2cc(Cl)ccc12 (stereo not shown) [chloroquine]
required inhibitory concentrations for ZIKV in cell culture [1]: micromolar range

C[C@@H](O)[C@@H](O)[C@H](O)[C@@H](O)C=O [Formula 6DG, 6-deoxyglucose, reference compound]
acidification of endosomes and lysosomes (AO fluorescence) [3]: did not prevent

Cl.N [NH4Cl, ammonium chloride, reference compound]
WNV RVP infection [5]: inhibited infection
DENV1 RVP infection [6]: inhibited infection
EBV RVP infection [7]: inhibited infection
IFN-β production in SeV-infected cells [8]: increased induction
SeV infection / viral replication [8]: increased viral replication
TBEV RVP infection [9]: inhibited infection
acidification of endosomes and lysosomes (AO fluorescence) [3]: prevent endosomal and lysosomal acidification
percentage of 4G2-positive cells ([4]; CHME3 cells, MOI 1, DGP 0.1 and 1 μM, NH4Cl 20 mM, 48 hours): substantial decrease
JEV RVP infection [10]: inhibited infection
